Measured values: patent US7368578B2, “Five-membered heterocyclic compounds” (Takeda Pharmaceutical Company Limited, priority 2002, dated 2008)

| SMILES | melting point [°C] |
| --- | --- |
| CCOP(=O)(/C=C/c1nc(-c2ccccc2)oc1COc1ccc(OCc2nc(-c3ccccc3)oc2C)cc1)OCC | 124 to 125 |
| CCOP(=O)(/C=C/c1cn(C)nc1OCc1ccc(OCc2nc(-c3ccco3)oc2C)c(OC)c1)OCC | 72 to 73 |
| CCOP(=O)(/C=C/c1cn(CCO)nc1OCc1ccc(OCc2nc(-c3ccco3)oc2C)c(OC)c1)OCC | 95 to 96 |
| CCOP(=O)(/C=C/c1cn(-c2ccccc2)nc1OCc1ccc(OCc2nc(N3CCCCC3)sc2C)c(OC)c1)OCC | 95 to 96 |
| CCOP(=O)(/C=C/c1cn(-c2ccccc2)nc1OCc1ccc(OCc2nc(-c3ccccc3)sc2C)c(OC)c1)OCC | 110 to 111 |
| CCOP(=O)(/C=C/c1cn(-c2ccccc2)nc1OCc1ccc(OCc2sc(-c3ccccc3)nc2C)c(OC)c1)OCC | 113 to 114 |
| CCOP(=O)(/C=C/c1cn(-c2ccccc2)nc1OCc1ccc(OCc2cn(-c3ccccn3)nc2C)c(OC)c1)OCC | 103 to 104 |
| CCOP(=O)(/C=C/c1cn(-c2ccccc2)nc1OCc1ccc(OCc2nc(-c3ccccc3)cn2C)c(OC)c1)OCC | 144 to 145 |
| CCOP(=O)(/C=C/c1cn(-c2ccccc2)nc1OCc1ccc(OCc2nc(N3CCOCC3)sc2C)c(OC)c1)OCC | 88 to 90 |
| CCOC(=O)/C=C/c1nc(COc2ccc(COc3nn(-c4ccccc4)cc3/C=C/P(=O)(OCC)OCC)cc2OC)c(C)o1 | 130 to 131 |
| CCOP(=O)(/C=C/c1cn(-c2ccccc2)nc1OCc1ccc(OCc2nc(-c3ccc(C)c(C(=O)OC)c3)oc2C)c(OC)c1)OCC | 121 to 122 |
| CCOP(=O)(/C=C/c1cn(-c2ccccc2)nc1OCc1ccc(OCc2nc(N3CCC(C(=O)O)CC3)sc2C)c(OC)c1)OCC | 159 to 160 |
| CCOC(=O)c1ccc(-c2nc(COc3ccc(COc4nn(-c5ccccc5)cc4/C=C/P(=O)(OCC)OCC)cc3OC)c(C)o2)s1 | 114 to 115 |

Second part, the molecule after the results:

| melting point [°C] | SMILES |
| --- | --- |
| 107 to 108 | COc1cc(COc2nn(-c3ccccc3)cc2/C=C/P(=O)(OC)OC)ccc1OCc1nc(-c2ccco2)oc1C |
| 109 to 110 | CCOP(=O)(/C=C/c1cn(-c2ccccc2)nc1OCc1ccc(OCc2nc(-c3ccccc3)oc2C)cc1)OCC |
| 131 to 132 | CCOP(=O)(/C=C/c1cn(-c2ccccc2)nc1OCc1ccc(OCc2nc(-c3ccco3)oc2C)cc1)OCC |
| 169 to 170 | CCOP(=O)(/C=C/c1cn(-c2ccccc2)nc1OCc1ccc(OCc2nc(-c3ccco3)oc2C)c(C(=O)O)c1)OCC |
| 134 to 135 | CCOP(=O)(/C=C/c1cn(-c2ccccc2)nc1OCc1ccc(OCc2nc(-c3ccco3)oc2C)nc1)OCC |
| 147 to 149 | CCOP(=O)(OCC)/C(O)=C/c1cn(-c2ccccc2)nc1OCc1ccc(OCc2nc(-c3ccco3)oc2C)c(OC)c1 |
| 194 to 195 | CCOP(=O)(/C=C/c1cn(-c2ccccc2)nc1OCc1ccc(OCc2nc(-c3ccc(C(=O)O)cc3)oc2C)c(OC)c1)OCC |
| 129 to 130 | CCOP(=O)(/C=C/c1cn(-c2ccccc2)nc1OCc1ccc(OCc2nc(-c3ccc(C(=O)OC)cc3)oc2C)c(OC)c1)OCC |
| 96 to 97 | CCOP(=O)(/C=C/c1cn(-c2ccccc2)nc1OCc1ccc(OCc2coc(-c3ccco3)n2)c(OC)c1)OCC |
| 128 to 129 | CCOP(=O)(/C=C/c1cn(-c2ccccc2)nc1OCc1ccc(OCc2nc(-c3cccnc3)oc2C)c(OC)c1)OCC |
| 153 to 155 | CCOP(=O)(/C=C/c1cn(-c2ccccc2)nc1OCc1ccc(OCc2nc(-c3cccc(C(=O)O)c3)oc2C)cc1)OCC |
| 129 to 130 | CCOC(=O)c1ccc(-c2nc(COc3ccc(COc4nn(-c5ccccc5)cc4/C=C/P(=O)(OCC)OCC)cc3OC)c(C)o2)o1 |
| 103 to 104 | CCOP(=O)(/C=C/c1cnc(-c2ccccc2)nc1OCc1ccc(OCc2nc(-c3ccco3)oc2C)c(OC)c1)OCC |
| 147 to 148 | CCOP(=O)(/C=C/c1cn(-c2ccccc2)nc1OCc1ccc(OCc2nc(-c3cccc(C#N)c3)oc2C)c(OC)c1)OCC |
